Values after ≈ are worked out from the molar mass of the structure shown.
Columns and labels:
[1] = Drug solubility in loading solvent; assay type: physicochemical; details: sunflower oil, oil or lipid
Description: The maximum amount of metoprolol which can dissolve in the volume of ethanol in a 10% solution was precisely weighed out and dissolved in the ethanol—DCM in the HPMCAS-PVP polymer solution before it was electrospun. When coumarin (hydrophobic fluorescent dye) was added, the voltage was increased to 19.1 kv. […] Ketoconazole was dissolved in sunflower oil.

[2] = cited from earlier work

| Structure (SMILES) | solubility [1] [µg/mL] | solubility in ethanol [2] [µg/mL] |
| --- | --- | --- |
| CC(=O)N1CCN(c2ccc(OCC3COC(Cn4ccnc4)(c4ccc(Cl)cc4Cl)O3)cc2)CC1 (centres unmarked) [Ketoconazole] | ~5800 (≈ 10.9 mM) | – |
| COCCc1ccc(OCC(O)CNC(C)C)cc1 (centres unmarked) [Metoprolol] | – | 31000 (≈ 116 mM) |

— patent US20250268801A1, “DRY CREAMS AND TOPICAL DELIVERY SYSTEMS” (UEA Enterprises Limited, priority 2021, published 2025)
